Laboratory results reported in US12281122B1, “PI3K inhibitors” (Cogent Biosciences, Inc., priority 2023, dated 2025).
pIC50: −log10 of the molar value.

Tests used:
[1] = tested on: T47D (PI3Kα-H1047R) cell line; test: HTRF phospho-AKT(S473) cell assay in T47D cells; type: cell-based, human
Summary of the method: (§1)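 Cells plated overnight (T47D in RPMI/10% FBS/0.2 units/mL insulin; SKBR3 in McCoy's 5A/10% FBS), then given 12-point 1:3 compound series (top 5 μM T47D, 10 μM SKBR3; ≤0.5% DMSO) for 2 h at 37° C. SKBR3 stimulated with 70 ng/ml PDGF-BB for final 15 min. Lysate pAKT(S473) by HTRF; IC50 calculated.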

[2] = tested on: SKBR3 (PI3Kα-Wild Type) cell line; test: HTRF phospho-AKT(S473) cell assay in SKBR3 cells; type: cell-based, human
Summary of the method: as §1

[3] = Homo sapiens; HTRF phospho-AKT(S473), T47D (PI3Kα-H1047R) cells, 2 hours compound incubation
[4] = Homo sapiens, SK-BR-3; HTRF phospho-AKT(S473), SKBR3 (PI3Kα-Wild Type) cells, 2 hours compound incubation, PDGF-BB stimulated
[5] = Homo sapiens; T47D (PI3Kα-H1047R) cells, HTRF phospho-AKT(S473), 2 hours compound incubation
[6] = Homo sapiens, SK-BR-3; SKBR3 (PI3Kα-Wild Type) cells, HTRF phospho-AKT(S473), 2 hours compound incubation, PDGF-BB stimulated

SMILES	pIC50 [1, 3]	pIC50 [2, 4]	pIC50 [1, 5]	pIC50 [2, 6]
Cc1cc([C@@H](C)Nc2ccc(Cl)nc2C(=O)NS(C)(=O)=O)c2nc(N3[C@@H]4CC[C@H]3C[C@@H](n3ncc5ccccc53)C4)n(C)c(=O)c2c1 [Compound 696, 3-(((R)-1-(2-((1R,3R,5S)-3-(1H-indazol-1-yl)-8-azabicyclo[3.2.1]octan-8-yl)-3,6-dimethyl-4-oxo-3,4-dihydroquinazolin-8-yl)ethyl)amino)-6-chloro-N-(methylsulfonyl) picolinamide]	6.00 to 6.30	≤ 5.30	–	–
Cc1cc([C@@H](C)Nc2ccc(Cl)nc2C(=O)NS(C)(=O)=O)c2nc(-c3ccn(-c4ccn(C)n4)c(=O)c3)n(C)c(=O)c2c1 [Compound 807, (R)-6-chloro-3-((1-(3,6-dimethyl-2-(1-(1-methyl-1H-pyrazol-3-yl)-2-oxo-1,2-dihydropyridin-4-yl)-4-oxo-3,4-dihydroquinazolin-8-yl)ethyl)amino)-N-(methylsulfonyl) picolinamide]	6.30 to 6.60	≤ 5.30	–	–
Cc1cc([C@@H](C)Nc2ccc(Cl)nc2C(=O)NS(C)(=O)=O)c2nc(N3C[C@@H]4C[C@H]3CN4c3cnc(C)nc3)n(C)c(=O)c2c1 [Compound 576, 6-chloro-3-(((R)-1-(3,6-dimethyl-2-((1S,4S)-5-(2-methylpyrimidin-5-yl)-2,5-diazabicyclo[2.2.1]heptan-2-yl)-4-oxo-3,4-dihydroquinazolin-8-yl)ethyl)amino)-N-(methylsulfonyl) picolinamide]	6.00 to 6.30	≤ 5.30	–	–
Cc1cc([C@@H](C)Nc2ccc(Cl)nc2C(=O)NS(C)(=O)=O)c2nc(N3Cc4cn(-c5ncccc5C)nc4C3)n(C)c(=O)c2c1 [Compound 701, (R)-6-chloro-3-((1-(3,6-dimethyl-2-(2-(3-methylpyridin-2-yl)-2,6-dihydropyrrolo[3,4-c]pyrazol-5(4H)-yl)-4-oxo-3,4-dihydroquinazolin-8-yl)ethyl)amino)-N-(methylsulfonyl) picolinamide]	6.30 to 6.60	≤ 5.30	–	–
Cc1cc([C@@H](C)Nc2ccc(Cl)nc2C(=O)NS(C)(=O)=O)c2nc(N3CCC(c4cnc(C)nc4)CC3)n(C3CC3)c(=O)c2c1 [Compound 607, (R)-6-chloro-3-((1-(3-cyclopropyl-6-methyl-2-(4-(2-methylpyrimidin-5-yl)piperidin-1-yl)-4-oxo-3,4-dihydroquinazolin-8-yl)ethyl)amino)-N-(methylsulfonyl) picolinamide]	> 6.60	5.30 to 6.00	–	–
COc1ncc(N2CCN(c3nc4c([C@@H](C)Nc5ccc(Cl)nc5C(=O)NS(C)(=O)=O)cc(C)cc4c(=O)n3C)CC2)cn1 [Compound 555, (R)-6-chloro-3-((1-(2-(4-(2-methoxypyrimidin-5-yl)piperazin-1-yl)-3,6-dimethyl-4-oxo-3,4-dihydroquinazolin-8-yl)ethyl)amino)-N-(methylsulfonyl) picolinamide]	> 6.60	5.30 to 6.00	–	–
Cc1cc([C@@H](C)Nc2ccc(Cl)nc2C(=O)NS(=O)(=O)C2COC2)c2nc(N3CCOCC3)n(C)c(=O)c2c1 [Compound 294, (R)-6-chloro-3-((1-(3,6-dimethyl-2-morpholino-4-oxo-3,4-dihydroquinazolin-8-yl)ethyl)amino)-N-(oxetan-3-ylsulfonyl)picolinamide]	–	–	> 6.60	5.30 to 6.00
Cc1cc([C@@H](C)Nc2ccc(Cl)nc2C(=O)NS(C)(=O)=O)c2nc(N3CCC[C@H](c4conc4C)C3)n(C)c(=O)c2c1 (relative stereo) [Compound 306, 6-chloro-3-(((R)-1-(3,6-dimethyl-2-((R*)-3-(3-methylisoxazol-4-yl)piperidin-1-yl)-4-oxo-3,4-dihydroquinazolin-8-yl)ethyl)amino)-N-(methylsulfonyl) picolinamide]	–	–	> 6.60	5.30 to 6.00
[2H]C([2H])([2H])n1cc2cc(-c3nc4c([C@@H](C)Nc5ccc(Cl)nc5C(=O)NS(C)(=O)=O)cc(C)cc4c(=O)n3C)ccc2n1 [Compound 817, (R)-6-chloro-3-((1-(3,6-dimethyl-2-(2-(methyl-d3)-2H-indazol-5-yl)-4-oxo-3,4-dihydroquinazolin-8-yl)ethyl)amino)-N-(methylsulfonyl) picolinamide]	> 6.60	5.30 to 6.00	–	–
Cc1cc([C@@H](C)Nc2ccc(Cl)nc2C(=O)NS(C)(=O)=O)c2nc(N3C[C@@H]4C[C@H]3C[C@@H]4c3nn(C)cc3F)n(C)c(=O)c2c1 (relative stereo) [Compound 444, 6-chloro-3-(((R)-1-(2-((1R*,4S*,5R*)-5-(4-fluoro-1-methyl-1H-pyrazol-3-yl)-2-azabicyclo[2.2.1]heptan-2-yl)-3,6-dimethyl-4-oxo-3,4-dihydroquinazolin-8-yl)ethyl)amino)-N-(methylsulfonyl) picolinamide]	6.30 to 6.60	≤ 5.30	–	–
C[C@@H](Nc1ccc(Cl)nc1C(=O)NS(C)(=O)=O)c1cc(C2CC2)cc2c(=O)n(C)c(N3C[C@@H]4[C@H](C3)[C@H]4c3cnn(C)c3)nc12 [Compound 386, 6-chloro-3-(((R)-1-(6-cyclopropyl-3-methyl-2-((1R,5S,6S)-6-(1-methyl-1H-pyrazol-4-yl)-3-azabicyclo[3.1.0]hexan-3-yl)-4-oxo-3,4-dihydroquinazolin-8-yl)ethyl)amino)-N-(methylsulfonyl) picolinamide]	–	–	> 6.60	5.30 to 6.00
Cc1cc([C@@H](C)Nc2ccc(Cl)nc2C(=O)NS(C)(=O)=O)c2nc(N3Cc4cn(-c5ccc(C)nc5)nc4C3)n(C)c(=O)c2c1 [Compound 217, (R)-6-chloro-3-((1-(3,6-dimethyl-2-(2-(6-methylpyridin-3-yl)-2,6-dihydropyrrolo[3,4-c]pyrazol-5(4H)-yl)-4-oxo-3,4-dihydroquinazolin-8-yl)ethyl)amino)-N-(methylsulfonyl) picolinamide]	–	–	> 6.60	5.30 to 6.00

Other lines, results leading:

pIC50 [1, 3]	pIC50 [2, 4]	pIC50 [1, 5]	pIC50 [2, 6]	SMILES
–	–	> 6.60	5.30 to 6.00	Cc1cc([C@@H](C)Nc2ccc(Cl)nc2C(=O)NS(C)(=O)=O)c2nc(N3CCC(Oc4ccn(C)n4)CC3)n(C)c(=O)c2c1 [Compound 265, (R)-6-chloro-3-((1-(3,6-dimethyl-2-(4-((1-methyl-1H-pyrazol-3-yl)oxy)piperidin-1-yl)-4-oxo-3,4-dihydroquinazolin-8-yl)ethyl)amino)-N-(methylsulfonyl) picolinamide]
–	–	> 6.60	5.30 to 6.00	Cc1cc([C@@H](C)Nc2ccc(Cl)nc2C(=O)NS(C)(=O)=O)c2nc(N3CCN(c4ncccn4)CC3)n(C)c(=O)c2c1 [Compound 169, (R)-6-chloro-3-((1-(3,6-dimethyl-4-oxo-2-(4-(pyrimidin-2-yl)piperazin-1-yl)-3,4-dihydroquinazolin-8-yl)ethyl)amino)-N-(methylsulfonyl) picolinamide]
–	–	> 6.60	5.30 to 6.00	Cc1cc([C@@H](C)Nc2ccc(Cl)nc2C(=O)NS(C)(=O)=O)c2nc(N3CCC(n4cccn4)CC3)n(C)c(=O)c2c1 [Compound 199, (R)-3-((1-(2-(4-(1H-pyrazol-1-yl)piperidin-1-yl)-3,6-dimethyl-4-oxo-3,4-dihydroquinazolin-8-yl)ethyl)amino)-6-chloro-N-(methylsulfonyl) picolinamide]
–	–	> 6.60	5.30 to 6.00	Cc1cc([C@@H](C)Nc2ccc(Cl)nc2C(=O)NS(C)(=O)=O)c2nc(N3CCC(c4c(C)nn(C)c4C)CC3)n(C)c(=O)c2c1 [Compound 226, (R)-6-chloro-3-((1-(3,6-dimethyl-4-oxo-2-(4-(1,3,5-trimethyl-1H-pyrazol-4-yl)piperidin-1-yl)-3,4-dihydroquinazolin-8-yl)ethyl)amino)-N-(methylsulfonyl) picolinamide]
–	–	> 6.60	≤ 5.30	Cc1cc([C@@H](C)Nc2ccc(Cl)nc2C(=O)NS(C)(=O)=O)c2nc(N3CCC(c4cccn(C)c4=O)CC3)n(C)c(=O)c2c1 [Compound 348, (R)-6-chloro-3-((1-(3,6-dimethyl-2-(4-(1-methyl-2-oxo-1,2-dihydropyridin-3-yl)piperidin-1-yl)-4-oxo-3,4-dihydroquinazolin-8-yl)ethyl)amino)-N-(methylsulfonyl) picolinamide]
–	–	> 6.60	5.30 to 6.00	Cc1cc([C@@H](C)Nc2ccc(Cl)nc2C(=O)NS(C)(=O)=O)c2nc(N3CCC[C@@H](c4ccncc4)C3)n(C)c(=O)c2c1 (relative stereo) [Compound 207, 6-chloro-3-(((R)-1-(3,6-dimethyl-4-oxo-2-((R*)-3-(pyridin-4-yl)piperidin-1-yl)-3,4-dihydroquinazolin-8-yl)ethyl)amino)-N-(methylsulfonyl) picolinamide]
–	–	> 6.60	5.30 to 6.00	Cc1cc([C@@H](C)Nc2ccc(Cl)nc2C(=O)NS(C)(=O)=O)c2nc(N3CC[C@H](Oc4cnn(C)c4)C3)n(C)c(=O)c2c1 [Compound 331, 6-chloro-3-(((R)-1-(3,6-dimethyl-2-((S)-3-((1-methyl-1H-pyrazol-4-yl)oxy)pyrrolidin-1-yl)-4-oxo-3,4-dihydroquinazolin-8-yl)ethyl)amino)-N-(methylsulfonyl) picolinamide]
–	–	> 6.60	5.30 to 6.00	CC(=O)Nc1ccc(C2CCN(c3nc4c([C@@H](C)Nc5ccc(Cl)nc5C(=O)NS(C)(=O)=O)cc(C)cc4c(=O)n3C)CC2)cn1 [Compound 254, (R)-3-((1-(2-(4-(6-acetamidopyridin-3-yl)piperidin-1-yl)-3,6-dimethyl-4-oxo-3,4-dihydroquinazolin-8-yl)ethyl)amino)-6-chloro-N-(methylsulfonyl) picolinamide]
